Experimental data taken from the OligoGym collection.
HELM strings list units from the 5' end as sugar, base in round brackets, then linkage (d deoxyribose, r ribose, m 2'-O-methyl, p phosphodiester). Strings are as the collection lists them; they lack the last nucleoside at the 3' end of the tested compound. [moe] = 2'-O-(2-methoxyethyl) (MOE); [sp] = phosphorothioate linkage; [m5C] = 5-methylcytosine

Target: UBE3A-ATS
Assay: mouse, dose not given
Details: ASO

Substance: RNA1{[moe](T)[sp].[moe](G)p.[moe]([m5C])p.[moe](T)p.[moe]([m5C])p.d(A)[sp].d(G)[sp].d(T)[sp].d(T)[sp].d(A)[sp].d(G)[sp].d(G)[sp].d(T)[sp].d(T)[sp].d(A)[sp].[moe](G)p.[moe](T)p.[moe](G)[sp].[moe]([m5C])}$$$$ (last 3' nucleoside missing)
- 3 h FOB score: 4.3 score 0-7

Substance: RNA1{[moe](T)[sp].[moe](G)p.[moe]([m5C])p.[moe](T)p.d(G)[sp].d(A)[sp].d(T)[sp].d([m5C])[sp].d(A)[sp].d([m5C])[sp].d(A)[sp].d(T)[sp].d(T)[sp].d(A)[sp].[moe]([m5C])p.[moe]([m5C])p.[moe]([m5C])p.[moe](A)[sp].[moe](T)}$$$$ (last 3' nucleoside missing)
- 3 h FOB score: 0 score 0-7

Substance: RNA1{[moe](T)[sp].[moe](G)p.[moe]([m5C])p.[moe](T)p.d(T)[sp].d([m5C])[sp].d(A)[sp].d([m5C])[sp].d([m5C])[sp].d(A)[sp].d(T)[sp].d(T)[sp].d(T)[sp].d(T)[sp].[moe](G)p.[moe](A)p.[moe]([m5C])p.[moe]([m5C])[sp].[moe](T)}$$$$ (last 3' nucleoside missing)
- 3 h FOB score: 0 score 0-7

Substance: RNA1{[moe](T)[sp].[moe](G)p.[moe]([m5C])p.[moe](T)p.d([m5C])[sp].d(A)[sp].d(G)[sp].d(T)[sp].d(T)[sp].d(A)[sp].d(G)[sp].d(G)[sp].d(T)[sp].d(T)[sp].[moe](A)p.[moe](G)p.[moe](T)p.[moe](G)[sp].[moe]([m5C])}$$$$ (last 3' nucleoside missing)
- 3 h FOB score: 4 score 0-7

Substance: RNA1{[moe](T)[sp].[moe](G)p.[moe]([m5C])p.[moe]([m5C])p.[moe](T)p.d(T)[sp].d(T)[sp].d([m5C])[sp].d(T)[sp].d(A)[sp].d(T)[sp].d(T)[sp].d(T)[sp].d([m5C])[sp].d(A)[sp].[moe](G)p.[moe](A)p.[moe]([m5C])[sp].[moe]([m5C])}$$$$ (last 3' nucleoside missing)
- 3 h FOB score: 2.7 score 0-7

Substance: RNA1{[moe](T)[sp].[moe](T)p.[moe](A)p.[moe](A)p.[moe]([m5C])p.d(T)[sp].d(G)[sp].d([m5C])[sp].d(T)[sp].d(T)[sp].d([m5C])[sp].d(A)[sp].d([m5C])[sp].d([m5C])[sp].d(A)[sp].[moe](T)p.[moe](T)p.[moe](T)[sp].[moe](T)}$$$$ (last 3' nucleoside missing)
- 3 h FOB score: 1 score 0-7

Substance: RNA1{[moe](T)[sp].[moe](T)p.[moe](A)p.[moe](G)p.[moe](G)p.[moe](T)p.d([m5C])[sp].d(A)[sp].d(A)[sp].d([m5C])[sp].d([m5C])[sp].d(A)[sp].d(A)[sp].d(T)[sp].d(T)[sp].d(T)[sp].[moe](G)p.[moe]([m5C])[sp].[moe](T)}$$$$ (last 3' nucleoside missing)
- 3 h FOB score: 0 score 0-7

Substance: RNA1{[moe](T)[sp].[moe](T)p.[moe](A)p.[moe](G)p.[moe](G)p.d(T)[sp].d(T)[sp].d(A)[sp].d(G)[sp].d(T)[sp].d(G)[sp].d([m5C])[sp].d(A)[sp].d([m5C])[sp].d(A)[sp].[moe](G)p.[moe](A)p.[moe](T)[sp].[moe](A)}$$$$ (last 3' nucleoside missing)
- 3 h FOB score: 6 score 0-7

Substance: RNA1{[moe](T)[sp].[moe](T)p.[moe](A)p.[moe](G)p.[moe](G)p.d(T)[sp].d([m5C])[sp].d(A)[sp].d(A)[sp].d([m5C])[sp].d([m5C])[sp].d(A)[sp].d(A)[sp].d(T)[sp].d(T)[sp].[moe](T)p.[moe](G)p.[moe]([m5C])[sp].[moe](T)}$$$$ (last 3' nucleoside missing)
- 3 h FOB score: 0 score 0-7

Substance: RNA1{[moe](T)[sp].[moe](T)p.[moe](A)p.[moe](G)p.[moe](G)p.d([m5C])[sp].d(A)[sp].d(A)[sp].d(T)[sp].d(G)[sp].d(G)[sp].d(A)[sp].d([m5C])[sp].d(T)[sp].d(T)[sp].[moe](A)p.[moe](G)p.[moe](T)[sp].[moe](A)}$$$$ (last 3' nucleoside missing)
- 3 h FOB score: 1 score 0-7

Substance: RNA1{[moe](T)[sp].[moe](T)p.[moe](A)p.[moe](G)p.[moe](T)p.d(A)[sp].d(T)[sp].d(G)[sp].d(T)[sp].d([m5C])[sp].d(G)[sp].d(A)[sp].d(G)[sp].d(A)[sp].d(A)[sp].[moe]([m5C])p.[moe](T)p.[moe]([m5C])[sp].[moe](A)}$$$$ (last 3' nucleoside missing)
- 3 h FOB score: 5.5 score 0-7

Substance: RNA1{[moe](T)[sp].[moe](T)p.[moe](A)p.[moe](G)p.[moe](T)p.d(G)[sp].d(T)[sp].d([m5C])[sp].d(A)[sp].d(T)[sp].d(A)[sp].d(T)[sp].d(G)[sp].d(T)[sp].d(A)[sp].[moe](G)p.[moe]([m5C])p.[moe](A)[sp].[moe](A)}$$$$ (last 3' nucleoside missing)
- 3 h FOB score: 1 score 0-7

Substance: RNA1{[moe](T)[sp].[moe](T)p.[moe](A)p.[moe](G)p.[moe]([m5C])p.d([m5C])[sp].d(A)[sp].d(T)[sp].d([m5C])[sp].d(A)[sp].d(T)[sp].d(T)[sp].d(T)[sp].d(T)[sp].d(A)[sp].[moe](T)p.[moe](T)p.[moe]([m5C])[sp].[moe](T)}$$$$ (last 3' nucleoside missing)
- 3 h FOB score: 0 score 0-7

Substance: RNA1{[moe](T)[sp].[moe](T)p.[moe](A)p.[moe](G)p.d(G)[sp].d(T)[sp].d([m5C])[sp].d(A)[sp].d(A)[sp].d([m5C])[sp].d([m5C])[sp].d(A)[sp].d(A)[sp].d(T)[sp].[moe](T)p.[moe](T)p.[moe](G)p.[moe]([m5C])[sp].[moe](T)}$$$$ (last 3' nucleoside missing)
- 3 h FOB score: 0 score 0-7

Substance: RNA1{[moe](T)[sp].[moe](T)p.[moe](A)p.[moe](T)p.[moe](A)p.d(G)[sp].d(G)[sp].d(G)[sp].d(T)[sp].d(G)[sp].d(G)[sp].d(T)[sp].d(T)[sp].d(G)[sp].d(G)[sp].[moe](T)p.[moe](T)p.[moe]([m5C])[sp].[moe](A)}$$$$ (last 3' nucleoside missing)
- 3 h FOB score: 7 score 0-7

Substance: RNA1{[moe](T)[sp].[moe](T)p.[moe](A)p.[moe](T)p.[moe](T)p.d(G)[sp].d(G)[sp].d(T)[sp].d([m5C])[sp].d(A)[sp].d(T)[sp].d([m5C])[sp].d(T)[sp].d([m5C])[sp].d(G)[sp].[moe](G)p.[moe](G)p.[moe](T)[sp].[moe](A)}$$$$ (last 3' nucleoside missing)
- 3 h FOB score: 4 score 0-7

Substance: RNA1{[moe](T)[sp].[moe](T)p.[moe](A)p.[moe]([m5C])p.[moe](T)p.d([m5C])[sp].d([m5C])[sp].d(T)[sp].d([m5C])[sp].d(T)[sp].d(G)[sp].d(G)[sp].d(T)[sp].d(G)[sp].d(T)[sp].[moe](G)p.[moe]([m5C])p.[moe](T)[sp].[moe](G)}$$$$ (last 3' nucleoside missing)
- 3 h FOB score: 3.5 score 0-7

Substance: RNA1{[moe](T)[sp].[moe](T)p.[moe](G)p.[moe](A)p.[moe](T)p.d([m5C])[sp].d(T)[sp].d(A)[sp].d(T)[sp].d(T)[sp].d(A)[sp].d(T)[sp].d(G)[sp].d(A)[sp].d(G)[sp].[moe](G)p.[moe](G)p.[moe]([m5C])[sp].[moe](A)}$$$$ (last 3' nucleoside missing)
- 3 h FOB score: 4.7 score 0-7

Substance: RNA1{[moe](T)[sp].[moe](T)p.[moe](G)p.[moe](G)[sp].d(T)[sp].d([m5C])[sp].d(A)[sp].d(T)[sp].d([m5C])[sp].d(T)[sp].d([m5C])[sp].d(G)[sp].[moe](G)p.[moe](G)p.[moe](T)p.[moe](A)[sp].[moe](T)}$$$$ (last 3' nucleoside missing)
- 3 h FOB score: 2.3 score 0-7

Substance: RNA1{[moe](T)[sp].[moe](T)p.[moe](G)p.[moe](G)p.[moe](T)[sp].d([m5C])[sp].d(A)[sp].d(T)[sp].d([m5C])[sp].d(T)[sp].d([m5C])[sp].d(G)[sp].d(G)[sp].[moe](G)p.[moe](T)p.[moe](A)[sp].[moe](T)}$$$$ (last 3' nucleoside missing)
- 3 h FOB score: 5 score 0-7

Substance: RNA1{[moe](T)[sp].[moe](T)p.[moe](G)p.[moe](G)p.[moe](T)p.[moe]([m5C])[sp].d(A)[sp].d(T)[sp].d([m5C])[sp].d(T)[sp].d([m5C])[sp].d(G)[sp].d(G)[sp].d(G)[sp].[moe](T)p.[moe](A)[sp].[moe](T)}$$$$ (last 3' nucleoside missing)
- 3 h FOB score: 6.7 score 0-7

Substance: RNA1{[moe](T)[sp].[moe](T)p.[moe](G)p.[moe](G)p.[moe](T)p.[moe]([m5C])p.d(A)[sp].d(T)[sp].d([m5C])[sp].d(T)[sp].d([m5C])[sp].d(G)[sp].d(G)[sp].d(G)[sp].d(T)[sp].d(A)[sp].[moe](T)p.[moe](A)[sp].[moe](T)}$$$$ (last 3' nucleoside missing)
- 3 h FOB score: 6.5 score 0-7

Substance: RNA1{[moe](T)[sp].[moe](T)p.[moe](G)p.[moe](G)p.[moe](T)p.d(A)[sp].d(T)[sp].d(T)[sp].d(G)[sp].d(A)[sp].d([m5C])[sp].d(A)[sp].d([m5C])[sp].d([m5C])[sp].d(T)[sp].[moe]([m5C])p.[moe]([m5C])p.[moe](A)[sp].[moe](A)}$$$$ (last 3' nucleoside missing)
- 3 h FOB score: 1 score 0-7

Substance: RNA1{[moe](T)[sp].[moe](T)p.[moe](G)p.[moe](G)p.[moe](T)p.d([m5C])[sp].d(A)[sp].d(T)[sp].d([m5C])[sp].d(T)[sp].d([m5C])[sp].d(G)[sp].d(G)[sp].d(G)[sp].d(T)[sp].[moe](A)p.[moe](T)p.[moe](A)[sp].[moe](T)}$$$$ (last 3' nucleoside missing)
- 3 h FOB score: 5.7 score 0-7

Substance: RNA1{[moe](T)[sp].[moe](T)p.[moe](G)p.[moe](G)p.[moe]([m5C])p.d(A)[sp].d([m5C])[sp].d(A)[sp].d([m5C])[sp].d([m5C])[sp].d(T)[sp].d(G)[sp].d(G)[sp].d(A)[sp].d(T)[sp].[moe](T)p.[moe](T)p.[moe]([m5C])[sp].[moe](A)}$$$$ (last 3' nucleoside missing)
- 3 h FOB score: 2 score 0-7

Substance: RNA1{[moe](T)[sp].[moe](T)p.[moe](G)p.[moe](G)p.[moe]([m5C])p.d(T)[sp].d(T)[sp].d(T)[sp].d(A)[sp].d(T)[sp].d(A)[sp].d([m5C])[sp].d(T)[sp].d(T)[sp].d(T)[sp].[moe](A)p.[moe]([m5C])p.[moe]([m5C])[sp].[moe]([m5C])}$$$$ (last 3' nucleoside missing)
- 3 h FOB score: 1 score 0-7

Substance: RNA1{[moe](T)[sp].[moe](T)p.[moe](G)p.[moe](G)p.d(T)[sp].d([m5C])[sp].d(A)[sp].d(T)[sp].d([m5C])[sp].d(T)[sp].d([m5C])[sp].d(G)[sp].d(G)[sp].d(G)[sp].[moe](T)p.[moe](A)p.[moe](T)p.[moe](A)[sp].[moe](T)}$$$$ (last 3' nucleoside missing)
- 3 h FOB score: 4 score 0-7
